Assay results taken from US6228373A, “Peptides with immunomodulatory effects” (priority 1995, dated 2001).
Positions of bridges follow the written chain, without caps; N, C: chain ends. Residues, ends and D or L forms follow the SMILES beside them. Chains are numbered I, II in the order given.

Key:
[1] = system: mice (DTH test as per Example 43); experiment: DTH test, comparison of different routes of administration; format: in vivo
Experimental: The mice were sensitized, Day 0, by epicutaneous application of 150 μl of an absolute ethanol-acetone (3:1) solution containing 3% OXA on the shaved abdomen. Treatment with peptides 1 to 41 inclusive, or vehicle (phosphate buffer, pH 7.4, containing a mixture of Buffer A and Buffer B in the proportion 63%:37% B (Buffer A: Na2 HPO4, 0.89 g/100 ml, EDTA 0.05 g/100 ml; Buffer B: NaH2 PO4, 0.69 g/100 ml, EDTA 0.05 g/100 ml) was initiated by oral feeding immediately after sensitization and continued once daily (a.m) until Day 6. Seven days after sensitization, both ears of all mice were challenged on both sides by topical application of 20 μl 1% OXA dissolved in peanut oil. Ear thickness was measured prior to and at 24 hours or 48 hours after challenge using an Oditest spring calliper. Challenges and measurements were performed under light pentobarbital anaesthesia.
The intensity of the DTH reactions was measured according to the method described by van Loveren H., et al. (1984) J. Immunol. Methods 67: 311 and expressed according to the formula: Tt24/48 -Tt0 μm units, where t0, t24 and t48 represent the ear thickness at time 0, +24 hrs or +48 hrs after challenge respectively, in individual tests (T). The results are expressed as the mean +/- S.E.M.. The level of significance between means of the groups is obtained by Student's two-tailed t-test. […]
Peptide (Peptide No. 4-derived from SEQ ID NO:24) was administered to mice (groups of 10) orally and by parenteral injection (intravenous and subcutaneous injection) at doses of from 0.0003 μmol/kg body weight through to 3.0 μmol/kg body weight as per example 43. […] The mean and standard error of the mean for each group of mice (10 per group) was recorded.
Peptide (SEQ ID NO:24, dimerized as shown in Box 36 of Table 1) was administered to mice (groups of 10) at doses of 0.03 μmol/kg body weight and 3.0 μmol/kg body weight. […] The mean and standard error of the mean for each group of mice (10 per group) was calculated.

[2] = system: rat spontaneously developed mammary carcinoma cells; experiment: Effects of peptides on tumour growth; format: in vivo; conditions: Wistar rats, subcutaneous mammary carcinoma, gavage once a day, all dose levels tested
Experimental: 10^4 rat spontaneously developed mammary carcinoma cells in isotonic saline and 5% normal syngeneic rat serum were inoculated subcutaneously in the right hindlegs of Wistar rats (8 per group). Tumour size was estimated by palpation and caliper measurements of a first diameter (a), being the largest diameter, and the one (b) perpendicular to the first. The volume of the tumour was calculated using the formula: V=0.4 ab^2.
Tumour volume is given in mm^3 as a median for each group of rats (8 per group).
Drug and control (isotonic saline) were administered by gavage (oesophagealtube) once a day (a.m.) on each of days 4-8 and 11-15 for peptides
i) Gly-Pro-Cys-Cys-Pro-Gly (SEQ ID NO:20; 3 μmol/kg/day); ii) Ala-Pro-Cys-Cys-Val-Pro (SEQ ID NO:21; 0.03 and […]);

[3] = 0.03 and 3.0 μmol/kg body weight

O=C(CNC(=O)[C@@H]1CCCN1)N[C@H]1CSSC[C@@H](C(=O)NCC(=O)N2CCC[C@H]2C(=O)O)NC1=O [Peptide 4] (H-PGCCGP-OH; disulfide 3-4)
immunomodulatory response, oral administration versus other parenteral means ([1]; 0.0003 to 3.0 μmol/kg body weight, oral vs intravenous and subcutaneous injection): more marked immunomodulatory response

NCC(=O)N1CCC[C@H]1C(=O)N[C@@H](CS)C(=O)N[C@@H](CS)C(=O)N1CCC[C@H]1C(=O)NCC(=O)O [Peptide 1, Gly-Pro-Cys-Cys-Pro-Gly] (H-GPCCPG-OH)
tumour volume compared with the control [2]: marked decrease in tumour volume

CC[C@H](C)[C@H](NC(=O)[C@@H](N)C(C)C)C(=O)N[C@H]1CSSC[C@@H](C(=O)N[C@@H](CC(C)C)C(=O)N[C@H](C(=O)O)[C@@H](C)O)NC1=O [SEQ ID NO:26] (H-VICCLT-OH; disulfide 3-4)
tumour volume compared with the control [2]: marked decrease in tumour volume

O=C(CNC(=O)[C@@H]1CCCN1)N[C@H]1CSSC[C@H](NC(=O)CNC(=O)[C@@H]2CCCN2)C(=O)N[C@H](C(=O)NCC(=O)N2CCC[C@H]2C(=O)O)CSSC[C@@H](C(=O)NCC(=O)N2CCC[C@H]2C(=O)O)NC1=O [Peptide 36] (I: H-PGCCGP-OH / II: H-PGCCGP-OH; disulfide I:3-II:3, I:4-II:4)
immunomodulatory effect in the DTH test relative to the control [1, 3]: significant immunomodulatory effect
reaction by oral route relative to parenteral routes at the same dosage [1, 3]: stronger reaction
